# Test results as given in US20200093801A1, “NEW METHODS FOR THE TREATMENT OF MULTIPLE SCLEROSIS” (Novartis AG, priority 2017, published 2020).
# Entries after “also recorded” stand apart in the source; their conditions may differ.
# Tests used:
# [1] = tested on: Cuprizone-Induced Demyelination in Mice; experiment: Cuprizone-induced demyelination in mice, brain histology / immunohistochemistry (169 mg/kg); format: in vivo, Mice (C57BL/6J); settings: 169 mg/kg p.o. qd, 2 weeks after 5 weeks 0.2% cuprizone
# Source text: Studies described below were approved by the Swiss Cantonal Veterinary Authority of Basel City, Switzerland, under the license number 2711. Mice (C57BL/6J) were commercially purchased from Charles River Laboratories, Germany or obtained from Novartis Pharma AG breeding colonies (8-9 weeks old, females). All the animals were allowed to adapt for 7 days prior the start of the experiment and housed in IVC racks (max. 4 mice/XJ Type cage). The animals were given access to food and water ad libitum. Animals were treated with cuprizone for 5 weeks. Cuprizone (Bis(cyclohexanone)oxaldihydrazone, Sigma-Aldrich) was mixed into rodent food pellets (0.2% w/w) by Provimi Kliba AG, Switzerland. Therapeutic treatment of animals after cuprizone was performed for 2 weeks on normal food with 169 mg/kg of BLZ945, qd, p.o. 10 ml/kg. BLZ945 was prepared in vehicle consisting of 0.5% methylcellulose in water and 0.1% Tween-80. Before killing 3 h after last BLZ945 dosing animals were perfused transcardially by phosphate-buffered saline (PBS), brains isolated and fixed in 4% paraformaldehyde (PFA) for 48 h at 4° C. After fixation brains were processed for paraffin embedding by dehydration through increasing ethanol series. Automated immunohistochemistry of paraffin sections was performed on 3 μm paraffin sections mounted on SuperFrost+ slides and automatically immunostained using the Discovery XT technology (Ventana/Roche Diagnostics). Briefly, sections were deparaffinized, rehydrated, subjected to antigen retrieval by heating with CC1 cell conditioning buffer, incubated for 1-3 hours at room temperature with primary antibody diluted in antibody diluent, incubated with the respective biotinylated secondary antibody diluted in antibody dilution, reacted with DABMab kit and counterstained with Hematoxylin II and Bluing Agent reagent (Ventana/Roche Diagnostics). Slides were washed with soap in hot tap water and rinsed under cold running tap water to remove the soap, then dehydrated and embedded with Pertex. Manual immunofluorescence staining of paraffin sections was performed on 3 μm paraffin sections. They were de-waxed and subjected to antigen retrieval (exception: GST-π) by microwaving for 15-20 minutes at 98° C. in 0.1 M citrate buffer pH 6.0 (quartett 400300692), the jar with slides were cooled to room temperature for 20-25 min and rinsed in 1×TBS (cell signaling 12498S) twice for 3 min. Endogenous peroxidase was quenched with Perox Block (Dako S2023) for 10 min, sections then washed with 1×TBS twice for 3 min and blocking with 10% normal goat serum (Dako X0907) in 1×TBS for 20 min performed. Sections were then incubated without rinsing with primary antibody for 60 min (MBP) or overnight (GST-pi, MOG) at room temperature. Sections were then washed in 1×TBS twice for 3 min and then incubated with secondary antibody for 30 min at room temperature. Sections were then washed with 1×TBS twice for 3 min and incubated with Vectastain ABC Elite Kit (Vector PK6100) for 30 min at room temperature, washed with 1×TBS twice for 3 min, incubated with DAB solution (Dako K3468) for 1-5 min. Sections were finally washed with distilled water twice for 2 min, counterstained with Hematoxylin (Dako S2020) for 3 min, again washed with running tap water for 5 min, dehydrated and embedded in Pertex. […]
# [2] = tested on: MOG Peptide-Induced EAE; experiment: MOG peptide-induced EAE; format: in vivo, Mice (C57BL/6J OlaHsd); settings: 100 and 150 mg/kg p.o. qd, day 14 to day 28 post-immunization; compared to vehicle
# Protocol: Mice (C57BL/6J OlaHsd) were commercially purchased from Harlan Laboratories BV (9 weeks old, females). All the animals were allowed to adapt for 7 days prior the start of the experiment and housed in IVC racks (max. 4 mice/XJ Type cage). The animals were given access to food and water ad libitum. Mice were immunized at with subcutaneous injection on the lower back of myelin oligodendrocyte glycoprotein peptide ([…]; in house produced; 200 μg/100 emulsified in 4 mg/ml complete Freund adjuvant (CFA, Sigma). Pertussis toxin (Fluka; 200 ng per mouse) was administered intraperitoneally on day 0 and day 2. Evaluation of EAE: The mice were observed and weighed daily. They were assessed for clinical signs on a scale from 0 to 5, with graduations of 0.5 for intermediate scores. 0: no clinical signs, 1: Limp tail/complete loss of tail tonus; 2: Clear hind limb weakness; 3: Complete bilateral hind limb paralysis; 4: Fore limbs and hind limbs paralysis; 5: Death. Supplementary food and gel food were provided inside the cage once first clinical signs appeared. Animals were treated for 14 days with 100 and 150 mg/kg of BLZ945, qd, p.o. 10 ml/kg from day 14 to day 28 post-immunization. BLZ945 was prepared in 0.5% methylcellulose in water and 0.1% Tween-80.
# [3] = compared to control (normal food)
smiles,measurement,setting,value
"CNC(=O)c1cc(Oc2ccc3nc(N[C@@H]4CCCC[C@H]4O)sc3c2)ccn1 [BLZ945, 4-(2-((1R,2R)-2-hydroxycyclohexylamino)benzothiazol-6-yloxy)-N-methylpicolinamide]","Iba1+ microglia number compared to control, cortex",[1]; [3],lower number of Iba1+ microglia
same,"Iba1+ microglia number compared to control, striatum",[1]; [3],lower number of Iba1+ microglia
same,"GFAP-positive astrocytes (stained area), all brain areas",[1]; compared to vehicle,enhances astrocytes; also recorded: even further increases astrocyte numbers; also recorded: substantially higher in cortex and striatum than it is in the corpus callosum
same,"Iba1-positive microglia numbers, all brain areas analyzed (cortex, striatum, corpus callosum)",[1]; compared to vehicle treated animals,reduces microglia numbers; also recorded: significantly reducing this increase compared to vehicle treated animals
same,"GST-π positive mature oligodendrocytes (number of positive cells), cortex",[1]; immunohistochemistry,increases oligodendrocyte numbers; also recorded: did not reach control levels; also recorded: significantly increased after BLZ945 treatment compared to vehicle control
same,"GST-π positive mature oligodendrocytes (number of positive cells), striatum",[1]; immunohistochemistry,increases oligodendrocyte numbers; also recorded: significantly increased after BLZ945 treatment compared to vehicle control; also recorded: did not reach control levels
same,"Myelin basic protein (MBP) stained area, cortex",[1]; immunohistochemistry,enhances remyelination; also recorded: did not reach control levels; also recorded: significantly increased after BLZ945 treatment compared to vehicle control
same,"Myelin basic protein (MBP) stained area, striatum",[1]; immunohistochemistry,enhances remyelination; also recorded: did not reach control levels; also recorded: significantly increased after BLZ945 treatment compared to vehicle control
same,"GST-π positive oligodendrocytes, corpus callosum",[1]; vs cuprizone vehicle,not corpus callosum; also recorded: no difference
same,"Luxol fast blue (LFB) optical density, corpus callosum",[1]; vs cuprizone vehicle,no difference
same,"Myelin oligodendrocyte glycoprotein (MOG) optical density, corpus callosum",[1]; vs cuprizone vehicle,not corpus callosum; also recorded: no difference
same,EAE clinical score / disease progression,[2],did not alter disease progression; also recorded: No difference
same,EAE disease onset/incidences,[2],similar
same,Weight change in EAE mice,[2],similar
